According to ChEMBL document CHEMBL1201862, “PubChem BioAssay data set” (2004):
The source made the active and inactive calls.

Assays:
[1] = Luminescence Cell-Based Dose Confirmation HTS to Identify Activators of 5'UTR Stem-Loop Driven Alpha-Synuclein mRNA Translation in H4 Neuroglioblastoma Cells. [Related pubchem assays: 1829 (Project Summary), 1814 (Primary HTS)]; type: functional
X-box-binding protein 1 = target: T1, X-box-binding protein 1 (Homo sapiens, UniProt P17861); type: functional, Cricetulus griseus;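 further: confirmatory dose-response counter-screen serving a CHOP assay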
T1 sequence (P17861 whole entry): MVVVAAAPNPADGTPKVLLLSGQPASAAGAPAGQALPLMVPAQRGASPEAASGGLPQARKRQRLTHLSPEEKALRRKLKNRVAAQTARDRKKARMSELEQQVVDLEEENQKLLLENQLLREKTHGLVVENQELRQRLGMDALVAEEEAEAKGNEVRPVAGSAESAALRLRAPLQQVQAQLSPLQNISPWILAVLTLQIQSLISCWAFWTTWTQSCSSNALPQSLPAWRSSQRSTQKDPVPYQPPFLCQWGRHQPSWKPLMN

H4 = experiment: Luminescence Cell-Based Dose Response HTS to Identify Activators of 5'UTR Stem-Loop Driven Prion Protein mRNA Translation in H4 Neuroglioblastoma Cells. [Related pubchem assays: 1829 (Project Summary), 1814 (Primary HTS)]; type: functional; details: Homo sapiens
[2] = Cytotoxicity screening for potential Inhibitors of Bacterial Capsule Biogenesis. [Related pubchem assays (depositor defined):AID488970]; type: functional
[3] = growth suppression of beta-catenin-knockout colon cells, dose response, cell-based, HCT116, human colon tumor (AID 1045); type: functional;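 further: HCT116 colon tumor cells with beta catenin knocked out; cells exposed to compound for 60 hours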
[4] = target: Protein-tyrosine kinase 2-beta (Homo sapiens, UniProt Q14289);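 further: potency of inhibitors of PYK2 kinase phosphorylation of poly-GT substrate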
[5] = Luminescence Cell-Based Dose Response HTS to Identify Activators of Luciferase Translation or Activity in H4 […] Cells. [Related pubchem assays: 1829 (Project Summary), 1814 (Primary HTS)]; type: functional
[6] = growth suppression of PTEN-null colon cells, dose response, cell-based, HCT116 PTEN knockout (AID 1047); type: functional;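 further: HCT116 colon tumor cells with PTEN knocked out; cells exposed to compound for 60 hours before readout; potency for loss of cell viability measured by luminescence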
[7] = target: T2, Heat shock 70 kDa protein 1A (Homo sapiens, UniProt P0DMV8); experiment: Hsp70 inhibitors, biochemical, TR-FRET (AID 786)
[8] = target: T2, Heat shock 70 kDa protein 1A; experiment: Hsp70 inhibitors, probe displacement, primary screen, biochemical, fluorescence polarization (AID 583)
Vero = experiment: Vero E6 cell cytotoxicity, SAR follow-up, cytotoxicity control for West Nile virus antiviral project, synthesized analogs (AID 2244); type: functional; details: Chlorocebus sabaeus
Protein Rev = Protein Rev (Human immunodeficiency virus type 1 group M subtype B (isolate HXB2)(HIV-1), UniProt P04618); experiment: inhibitors of Rev binding to RRE RNA, dose response, biochemical, fluorescence polarization, HIV-1 (AID 434976); design: species or system Human immunodeficiency virus 1
[9] = target: Female germline-specific tumor suppressor gld-1 (Caenorhabditis elegans, UniProt Q17339); experiment: inhibitors of GLD-1 binding to TGE RNA, dose response, biochemical, fluorescence polarization, C. elegans (AID 2802);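 further: fluorescence polarization of labeled TGE RNA bound by purified gld-1 protein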
[10] = target: Signal transducer and activator of transcription 3 (Homo sapiens, UniProt P40763); experiment: STAT3 activators, late-stage profile, late-stage follow-up, cell-based, STAT1 reporter, BCL3 qPCR, cytotoxicity, panel member STAT3 Activation (AID 2049)
[11] = target: Cyclin-dependent kinase 5/CDK5 activator 1 (Homo sapiens, UniProt Q00535); experiment: CDK5/p35 kinase inhibitors, dose response, biochemical, cherry-picked samples, set 2 (AID 504545)
[12] = target: G-protein coupled receptor 35 (Homo sapiens, UniProt Q9HC97); experiment: GPR35 antagonists blocking zaprinast-driven arrestin recruitment, primary screen, imaging, U2OS, beta-arrestin-GFP, zaprinast agonist (AID 2058); type: functional;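 further: antagonist potency meaning inhibition of agonist-induced arrestin redistribution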
HEK293 [13] = experiment: PMA/Ionomycin induced NF-kB luciferase assay in 293- NF-kB-Luc stable cells. [Related pubchem assays: 1299, 1270, 1295, 1375, 1287, 1281, 1293, 1291, 1289, 1280, 465, 1364, 1282, 1372, 1365, 1370, 1367, 1366, 1269, 1373, 1292, 1290, 1302, 1371, 1283, 1271, 1294, 1374, 1368, 1369 ]; type: functional, cell-based; details: Homo sapiens
[14] = target: Luciferin 4-monooxygenase (Photinus pyralis, UniProt P08659); experiment: In vitro luciferase assay using purified luciferase. [Related pubchem assays: 1299, 1270, 1295, 1375, 1287, 1281, 1293, 1291, 1289, 1280, 465, 1364, 1282, 1372, 1365, 1370, 1367, 1366, 1266, 1373, 1292, 1290, 1302, 1371, 1283, 1271, 1294, 1374, 1368, 1369 ]
HEK293 [15] = experiment: Cytotoxicity assay in HEK293 cells. [Related pubchem assays (depositor defined):AID1266, AID1269, AID1270, AID1271, AID1280, AID1281, AID1282, AID1283, AID1287, AID1289, AID1290, AID1291, AID1292, AID1293, AID1294, AID1295, AID1299, AID1302, AID1364, AID1365, AID1366, AID1367, AID1369, AID1370, AID1371, AID1372, AID1373, AID1374, AID1375, AID1384 …; type: functional, cell-based; details: Homo sapiens
[16] = target: T3, Alkaline phosphatase, tissue-nonspecific isozyme (Homo sapiens, UniProt P05186); experiment: human TNAP enzyme inhibitors, SAR follow-up, biochemical, luminescent, dose response (AID 1056)
T3 sequence (P05186 whole entry): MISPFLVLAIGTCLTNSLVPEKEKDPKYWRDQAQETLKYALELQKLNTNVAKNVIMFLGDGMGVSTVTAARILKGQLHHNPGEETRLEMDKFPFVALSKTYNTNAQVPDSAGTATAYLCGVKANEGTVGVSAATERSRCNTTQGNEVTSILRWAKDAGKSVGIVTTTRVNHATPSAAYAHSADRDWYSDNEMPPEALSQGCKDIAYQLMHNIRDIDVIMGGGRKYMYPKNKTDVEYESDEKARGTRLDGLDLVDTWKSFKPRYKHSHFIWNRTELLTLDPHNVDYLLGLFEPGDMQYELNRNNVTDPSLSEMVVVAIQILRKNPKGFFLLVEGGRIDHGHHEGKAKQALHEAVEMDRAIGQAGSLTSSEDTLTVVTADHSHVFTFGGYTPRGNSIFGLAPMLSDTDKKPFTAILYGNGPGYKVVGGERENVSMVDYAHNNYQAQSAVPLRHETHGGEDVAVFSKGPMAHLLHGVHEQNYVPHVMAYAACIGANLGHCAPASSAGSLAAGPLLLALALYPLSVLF

[17] = target: Glyceraldehyde-3-phosphate dehydrogenase (Homo sapiens, UniProt P04406)
[18] = target: T3, Alkaline phosphatase, tissue-nonspecific isozyme; experiment: SAR assay for compounds inhibiting TNAP in the absence of phosphate acceptor performed in a luminescent assay. [Related pubchem assays (depositor defined):AID1548, AID1659, AID518]
Interleukin-8 = Interleukin-8 (Homo sapiens, UniProt P10145); experiment: SAR analysis of tumor necrosis factor alpha (TNF-alpha) induced IL-8 secretion in MCF-7/NOD1 cells. [Related pubchem assays (depositor defined):AID1575, AID2250, AID2260]; type: functional, cell-based
[19] = target: T4, Nucleotide-binding oligomerization domain-containing protein 1 (Homo sapiens, UniProt Q9Y239); experiment: NOD1 signaling inhibitors, SAR follow-up, revised (AID 2333); type: functional
T4 sequence (Q9Y239 whole entry): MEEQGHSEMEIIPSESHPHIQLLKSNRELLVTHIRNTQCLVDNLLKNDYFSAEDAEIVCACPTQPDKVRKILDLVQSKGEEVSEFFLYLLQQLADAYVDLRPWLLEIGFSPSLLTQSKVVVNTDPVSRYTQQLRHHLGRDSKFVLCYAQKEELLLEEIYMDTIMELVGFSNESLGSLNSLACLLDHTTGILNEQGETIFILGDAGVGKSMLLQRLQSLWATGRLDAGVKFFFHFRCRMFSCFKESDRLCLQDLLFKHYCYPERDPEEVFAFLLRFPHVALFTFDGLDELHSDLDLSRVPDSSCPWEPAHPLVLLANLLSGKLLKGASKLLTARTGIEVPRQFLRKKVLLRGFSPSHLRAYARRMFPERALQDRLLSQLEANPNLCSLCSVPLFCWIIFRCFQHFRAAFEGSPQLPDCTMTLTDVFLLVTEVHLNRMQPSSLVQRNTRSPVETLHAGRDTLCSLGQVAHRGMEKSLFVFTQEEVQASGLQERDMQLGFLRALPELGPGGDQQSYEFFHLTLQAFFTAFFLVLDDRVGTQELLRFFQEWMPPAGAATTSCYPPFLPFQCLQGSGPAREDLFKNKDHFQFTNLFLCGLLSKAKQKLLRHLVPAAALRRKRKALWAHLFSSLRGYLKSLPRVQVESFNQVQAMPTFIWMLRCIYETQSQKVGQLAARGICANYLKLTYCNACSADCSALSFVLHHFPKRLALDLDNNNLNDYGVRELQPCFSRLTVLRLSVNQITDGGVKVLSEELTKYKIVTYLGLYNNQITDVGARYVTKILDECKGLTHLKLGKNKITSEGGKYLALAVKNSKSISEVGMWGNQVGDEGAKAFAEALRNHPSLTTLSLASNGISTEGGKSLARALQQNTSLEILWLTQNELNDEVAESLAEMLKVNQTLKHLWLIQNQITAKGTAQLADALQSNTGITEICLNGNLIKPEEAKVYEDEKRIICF

Tumor necrosis factor = Tumor necrosis factor (Homo sapiens, UniProt P01375); experiment: TNFa-triggered NF-kB activation inhibitors, SAR follow-up, cell-based, revised (AID 2337); type: functional
HEK293 [20] = experiment: cells; details: Homo sapiens
[21] = target: Nucleotide-binding oligomerization domain-containing protein 2 (Homo sapiens, UniProt Q9HC29); experiment: PubChem AID 2334; type: functional
Cysteine protease ATG4B = target: T5, Cysteine protease ATG4B (Homo sapiens, UniProt Q9Y4P1); type: functional;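 further: Fluorescence-based dose-response confirmation assay measuring inhibition of ATG4B activity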
T5 sequence (Q9Y4P1 whole entry): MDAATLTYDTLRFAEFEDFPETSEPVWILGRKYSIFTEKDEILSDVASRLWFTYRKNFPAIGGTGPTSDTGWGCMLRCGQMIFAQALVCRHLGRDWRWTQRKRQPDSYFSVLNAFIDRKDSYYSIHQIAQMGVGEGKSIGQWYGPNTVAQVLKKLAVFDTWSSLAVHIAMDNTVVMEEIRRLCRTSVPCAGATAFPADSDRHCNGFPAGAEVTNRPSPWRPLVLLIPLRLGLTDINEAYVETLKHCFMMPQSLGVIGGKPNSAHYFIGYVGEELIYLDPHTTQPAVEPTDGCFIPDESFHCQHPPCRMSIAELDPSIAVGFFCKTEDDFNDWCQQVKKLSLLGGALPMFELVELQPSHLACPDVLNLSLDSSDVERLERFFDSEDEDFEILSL

Phospholipase A2 = Phospholipase A2 (Homo sapiens, UniProt P04054); type: functional;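 further: confirmatory dose-response counterscreen on phospholipase A2, testing hits that came from an ultra-high-throughput screen for ATG4B inhibitors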
Staphylococcus aureus = experiment: Inhibitors of Bacterial Quorum Sensing Structure Activity Relationship (SAR) Analysis: Dose Response Assay. [Related pubchem assays: 700, 527 ]; type: functional, organism-based
Cytochrome P450 3A4 = Cytochrome P450 3A4 (Homo sapiens, UniProt P08684);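 further: CYP3A4 tested as one member of a cytochrome P450 panel screen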
Cytochrome P450 2C19 = Cytochrome P450 2C19 (Homo sapiens, UniProt P33261); experiment: Cytochrome panel assay with activity outcomes. Panel member name: p450-cyp2c19 Compounds with AC50 equal or less than 10 uM are considered active; type: functional; details: read-out: AC50

T2 sequence (P0DMV8 whole entry): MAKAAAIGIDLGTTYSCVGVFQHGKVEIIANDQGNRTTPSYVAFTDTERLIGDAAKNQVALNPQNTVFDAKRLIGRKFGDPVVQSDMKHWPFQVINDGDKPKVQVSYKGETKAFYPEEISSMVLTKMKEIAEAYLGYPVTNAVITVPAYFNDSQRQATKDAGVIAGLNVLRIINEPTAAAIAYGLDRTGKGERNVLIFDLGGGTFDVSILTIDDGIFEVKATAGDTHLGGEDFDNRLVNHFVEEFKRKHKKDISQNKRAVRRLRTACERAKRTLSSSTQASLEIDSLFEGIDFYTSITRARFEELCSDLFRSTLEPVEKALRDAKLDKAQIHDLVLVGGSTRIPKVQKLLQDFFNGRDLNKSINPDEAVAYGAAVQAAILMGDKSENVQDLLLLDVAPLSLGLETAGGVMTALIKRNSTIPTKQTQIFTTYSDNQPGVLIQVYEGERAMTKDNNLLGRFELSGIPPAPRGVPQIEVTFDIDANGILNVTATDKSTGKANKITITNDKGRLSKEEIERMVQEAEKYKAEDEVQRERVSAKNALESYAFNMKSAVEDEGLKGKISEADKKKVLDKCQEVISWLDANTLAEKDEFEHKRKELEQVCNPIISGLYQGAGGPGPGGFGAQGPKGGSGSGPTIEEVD
Tumor necrosis factor, sequence (P01375 whole entry): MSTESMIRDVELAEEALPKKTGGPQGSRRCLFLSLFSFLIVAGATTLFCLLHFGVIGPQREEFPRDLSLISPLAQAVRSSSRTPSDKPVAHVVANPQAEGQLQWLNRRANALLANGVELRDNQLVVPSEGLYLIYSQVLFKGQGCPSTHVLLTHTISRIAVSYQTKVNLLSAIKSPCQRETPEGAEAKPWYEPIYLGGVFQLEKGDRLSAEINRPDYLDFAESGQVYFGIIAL
Cyclin-dependent kinase 5/CDK5 activator 1, sequence (Q00535 whole entry): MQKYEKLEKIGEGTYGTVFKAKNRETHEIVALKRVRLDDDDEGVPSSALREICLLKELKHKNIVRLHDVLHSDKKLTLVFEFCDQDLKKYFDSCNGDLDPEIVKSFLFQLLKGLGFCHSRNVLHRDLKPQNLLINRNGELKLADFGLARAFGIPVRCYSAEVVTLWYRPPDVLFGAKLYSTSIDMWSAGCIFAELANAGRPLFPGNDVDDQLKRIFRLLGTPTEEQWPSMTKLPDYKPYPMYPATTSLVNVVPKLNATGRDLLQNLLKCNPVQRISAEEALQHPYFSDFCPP
Cyclin-dependent kinase 5/CDK5 activator 1, sequence (Q15078 whole entry, further chain): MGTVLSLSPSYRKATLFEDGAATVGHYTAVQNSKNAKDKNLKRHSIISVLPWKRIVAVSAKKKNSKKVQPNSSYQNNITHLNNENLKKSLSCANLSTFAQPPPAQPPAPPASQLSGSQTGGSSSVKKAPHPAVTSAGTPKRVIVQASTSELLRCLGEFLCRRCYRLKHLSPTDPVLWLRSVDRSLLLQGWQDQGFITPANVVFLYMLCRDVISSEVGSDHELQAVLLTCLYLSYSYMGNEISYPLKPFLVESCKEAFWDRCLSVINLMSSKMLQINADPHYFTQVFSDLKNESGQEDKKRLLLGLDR
Protein-tyrosine kinase 2-beta, sequence (Q14289 whole entry): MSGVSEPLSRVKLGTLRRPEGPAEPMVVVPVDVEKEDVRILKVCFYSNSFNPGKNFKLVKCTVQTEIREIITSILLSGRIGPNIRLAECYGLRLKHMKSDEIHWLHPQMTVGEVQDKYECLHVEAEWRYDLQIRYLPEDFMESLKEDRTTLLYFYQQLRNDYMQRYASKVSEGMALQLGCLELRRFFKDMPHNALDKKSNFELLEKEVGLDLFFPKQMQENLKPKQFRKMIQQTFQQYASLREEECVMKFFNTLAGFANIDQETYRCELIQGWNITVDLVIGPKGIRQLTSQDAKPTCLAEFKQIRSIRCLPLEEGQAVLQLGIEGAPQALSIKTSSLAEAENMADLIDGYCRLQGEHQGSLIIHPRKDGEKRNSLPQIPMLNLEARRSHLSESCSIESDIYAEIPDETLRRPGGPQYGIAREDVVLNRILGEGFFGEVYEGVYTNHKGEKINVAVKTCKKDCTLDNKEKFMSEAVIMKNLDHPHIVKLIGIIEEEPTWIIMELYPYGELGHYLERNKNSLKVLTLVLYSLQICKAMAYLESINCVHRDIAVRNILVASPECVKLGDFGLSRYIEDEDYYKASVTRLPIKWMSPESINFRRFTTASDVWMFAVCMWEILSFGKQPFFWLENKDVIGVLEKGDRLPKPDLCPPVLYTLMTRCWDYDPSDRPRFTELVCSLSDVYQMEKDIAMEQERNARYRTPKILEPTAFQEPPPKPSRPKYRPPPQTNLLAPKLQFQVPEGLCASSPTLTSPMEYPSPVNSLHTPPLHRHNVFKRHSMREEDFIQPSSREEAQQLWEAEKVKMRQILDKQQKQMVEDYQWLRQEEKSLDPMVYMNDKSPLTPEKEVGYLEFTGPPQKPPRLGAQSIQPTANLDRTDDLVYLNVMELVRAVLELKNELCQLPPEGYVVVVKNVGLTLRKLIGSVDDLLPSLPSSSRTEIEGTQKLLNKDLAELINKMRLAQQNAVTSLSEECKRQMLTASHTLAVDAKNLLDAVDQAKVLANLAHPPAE
Luciferin 4-monooxygenase, sequence (P08659 whole entry): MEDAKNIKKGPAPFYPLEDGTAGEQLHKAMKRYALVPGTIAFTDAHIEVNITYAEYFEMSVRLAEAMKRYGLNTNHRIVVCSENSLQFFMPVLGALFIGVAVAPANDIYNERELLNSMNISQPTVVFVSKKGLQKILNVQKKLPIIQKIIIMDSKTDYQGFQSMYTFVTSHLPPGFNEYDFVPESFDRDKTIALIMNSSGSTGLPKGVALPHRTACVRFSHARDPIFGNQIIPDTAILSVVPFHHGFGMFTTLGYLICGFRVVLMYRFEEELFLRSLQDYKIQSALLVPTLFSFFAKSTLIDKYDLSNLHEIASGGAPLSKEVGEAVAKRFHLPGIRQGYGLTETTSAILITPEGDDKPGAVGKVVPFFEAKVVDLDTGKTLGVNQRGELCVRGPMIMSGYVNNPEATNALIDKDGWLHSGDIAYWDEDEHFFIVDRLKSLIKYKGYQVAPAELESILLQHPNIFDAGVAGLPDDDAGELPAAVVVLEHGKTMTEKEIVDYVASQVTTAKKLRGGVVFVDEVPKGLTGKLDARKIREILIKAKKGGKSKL
Cytochrome P450 3A4, sequence (P08684 whole entry): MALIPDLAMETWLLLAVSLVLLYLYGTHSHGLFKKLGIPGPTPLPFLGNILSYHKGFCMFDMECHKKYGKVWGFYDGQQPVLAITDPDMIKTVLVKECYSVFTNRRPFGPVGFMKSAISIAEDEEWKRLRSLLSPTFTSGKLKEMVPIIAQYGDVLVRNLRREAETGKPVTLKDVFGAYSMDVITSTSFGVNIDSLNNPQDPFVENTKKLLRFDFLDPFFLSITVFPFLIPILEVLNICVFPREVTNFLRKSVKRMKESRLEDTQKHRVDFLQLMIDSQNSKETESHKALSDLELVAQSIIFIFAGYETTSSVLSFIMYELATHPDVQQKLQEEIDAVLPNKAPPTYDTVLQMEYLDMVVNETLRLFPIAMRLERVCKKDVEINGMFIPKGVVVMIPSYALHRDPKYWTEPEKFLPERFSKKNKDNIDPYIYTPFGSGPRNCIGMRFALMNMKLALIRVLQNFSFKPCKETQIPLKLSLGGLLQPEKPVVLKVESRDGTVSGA
Protein Rev, sequence (P04618 whole entry): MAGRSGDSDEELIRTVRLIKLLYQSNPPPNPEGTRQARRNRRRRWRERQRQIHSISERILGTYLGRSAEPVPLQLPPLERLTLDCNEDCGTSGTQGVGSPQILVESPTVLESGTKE
Nucleotide-binding oligomerization domain-containing protein 2, sequence (Q9HC29 whole entry, the tested form may be a part): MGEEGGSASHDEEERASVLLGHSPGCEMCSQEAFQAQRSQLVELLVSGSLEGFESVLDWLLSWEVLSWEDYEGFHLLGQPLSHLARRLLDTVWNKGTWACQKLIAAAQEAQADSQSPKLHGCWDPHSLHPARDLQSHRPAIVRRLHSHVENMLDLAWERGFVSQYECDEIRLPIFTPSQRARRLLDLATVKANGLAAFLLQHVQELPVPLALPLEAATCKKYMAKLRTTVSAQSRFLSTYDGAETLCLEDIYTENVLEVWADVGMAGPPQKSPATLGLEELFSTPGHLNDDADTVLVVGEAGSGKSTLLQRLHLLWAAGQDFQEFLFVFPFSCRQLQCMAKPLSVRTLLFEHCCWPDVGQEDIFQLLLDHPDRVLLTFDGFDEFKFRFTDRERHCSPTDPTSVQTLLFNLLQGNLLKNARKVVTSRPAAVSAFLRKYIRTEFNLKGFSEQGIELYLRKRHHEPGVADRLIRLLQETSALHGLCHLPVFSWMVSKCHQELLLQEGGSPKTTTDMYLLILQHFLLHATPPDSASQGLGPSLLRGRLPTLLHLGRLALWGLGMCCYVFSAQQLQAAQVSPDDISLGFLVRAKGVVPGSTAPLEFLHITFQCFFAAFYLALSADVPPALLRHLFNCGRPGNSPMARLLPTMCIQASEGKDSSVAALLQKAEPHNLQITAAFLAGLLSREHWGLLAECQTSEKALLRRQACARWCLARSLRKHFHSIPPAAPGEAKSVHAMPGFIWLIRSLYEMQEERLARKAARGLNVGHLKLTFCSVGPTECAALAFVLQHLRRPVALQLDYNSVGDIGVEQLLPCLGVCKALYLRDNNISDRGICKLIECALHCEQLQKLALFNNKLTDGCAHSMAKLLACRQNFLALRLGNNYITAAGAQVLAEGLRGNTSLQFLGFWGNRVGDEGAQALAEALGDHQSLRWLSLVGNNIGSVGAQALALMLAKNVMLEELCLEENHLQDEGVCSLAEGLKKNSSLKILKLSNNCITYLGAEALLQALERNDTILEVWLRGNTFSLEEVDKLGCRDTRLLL
Interleukin-8, sequence (P10145 whole entry, the tested form may be a part): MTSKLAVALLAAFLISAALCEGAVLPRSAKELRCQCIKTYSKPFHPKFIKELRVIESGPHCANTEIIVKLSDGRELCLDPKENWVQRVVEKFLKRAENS
Phospholipase A2, sequence (P04054 whole entry): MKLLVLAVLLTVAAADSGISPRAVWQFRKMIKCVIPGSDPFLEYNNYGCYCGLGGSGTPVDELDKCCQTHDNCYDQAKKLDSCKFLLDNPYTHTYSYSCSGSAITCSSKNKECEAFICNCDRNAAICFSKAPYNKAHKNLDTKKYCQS

O=C(ONc1ccc(N=NC(=O)c2ccccc2O)cc1)c1ccccc1
EC50 [1]: > 120 µM (not active) | Absolute IC50 (XBP1) (X-box-binding protein 1): 10 µM | EC50 (H4): 28.8 µM (active) | CC50 [2]: 45.1 µM (active) | EC50 [3]: 21.1 µM (active) | IC50 [4]: 5.49 µM (active) | EC50 [5]: 10.1 µM (active) | EC50 [6]: 20 µM (active) | IC50 [7]: > 100 µM (not active) | IC50 [8]: 11.7 µM (active)

COc1ccc(-c2csc(NC(=O)c3ccccc3F)n2)cc1
CC50 (Vero): > 40 µM (active)

COc1ccc(/C=C(\CC(=O)O)c2nc3ccccc3s2)cc1O
IC50 (Protein Rev): > 75.4 µM (not active) | IC50 [9]: 2.43 µM (active)

Nc1c(C(=O)Nc2ccccc2)noc1C(=O)c1ccccc1
EC50 [10]: > 55.7 µM (inactive)

CC(C)n1cnc2c(Nc3cccc(F)c3)nc(NCCO)nc21
AC50 [11]: 5.86 µM (active)

COc1ccc(/C=C\C(=O)NCC(=O)N/N=C/c2ccc(O)cc2O)cc1
IC50 [12]: 1.16 µM (active)

COc1ccc(CNC(=O)c2ccc([N+](=O)[O-])o2)cc1
EC50 (HEK293 [13]): 4.24 µM (not active) | EC50 [14]: > 8 µM (not active) | EC50 (HEK293 [15]): > 8 µM (inactive)

O=C(NCCO)c1cc(-c2ccc(Cl)c(Cl)c2Cl)n[nH]1
IC50 [16]: 0.00744 µM (active) | IC50 [17]: > 10 µM (inconclusive) | IC50 [18]: 0.00422 µM (active)

O=C(O)c1c(NC(=O)N2CCOCC2)sc2c1CCCC2
IC50 (Interleukin-8): > 25 µM (inactive) | IC50 [19]: 1.47 µM (active) | IC50 (Tumor necrosis factor): > 20 µM (inactive) | IC50 (HEK293 [20]): > 20 µM (inactive) | IC50 [21]: > 20 µM (inactive)

Cc1c(Cl)cccc1Nc1ccccc1C(=O)O [TOLFENAMIC ACID]
IC50 (Cysteine protease ATG4B): 8.17 µM (active) | IC50 (Phospholipase A2): 7.74 µM (active) | IC50 (Staphylococcus aureus): 0.459 µM (active) | AC50 (Cytochrome P450 3A4): inconclusive | AC50 (Cytochrome P450 2C19): 15.8 µM (inconclusive)
